Measured values taken from US20140135310A1, “SULPHONAMIDE DERIVATIVES OF ALICYCLIC AMINES FOR THE TREATMENT OF CENTRAL NERVOUS SYSTEM DISEASES” (Adamed Sp. z o.o., priority 2011, published 2014).

Assays:
[1] = target: T1, α2C adrenergic receptors (Homo sapiens, UniProt P18825); test: Radioligand binding assay, adrenergic α2C receptors; conditions: test compound 1×10^−6 M
T1 construct: expressed in transfected cells; host or cells: CHO cells
T1 sequence (P18825 1-462): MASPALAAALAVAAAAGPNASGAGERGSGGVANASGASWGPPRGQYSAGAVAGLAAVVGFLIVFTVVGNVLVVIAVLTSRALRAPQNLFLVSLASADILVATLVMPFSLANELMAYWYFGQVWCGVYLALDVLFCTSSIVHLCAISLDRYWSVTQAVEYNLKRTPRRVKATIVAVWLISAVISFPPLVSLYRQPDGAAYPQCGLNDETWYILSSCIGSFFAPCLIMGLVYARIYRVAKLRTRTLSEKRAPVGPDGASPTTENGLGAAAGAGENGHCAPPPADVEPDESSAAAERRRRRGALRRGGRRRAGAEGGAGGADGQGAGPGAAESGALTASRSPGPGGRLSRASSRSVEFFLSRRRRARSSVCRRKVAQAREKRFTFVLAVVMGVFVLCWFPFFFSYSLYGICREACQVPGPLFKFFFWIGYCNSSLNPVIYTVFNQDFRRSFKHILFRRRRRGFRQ
Method in brief: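 Competitive radioligand binding at human α2C receptors, with scintillation counting. Nonspecific binding defined with excess unlabelled ligand; results given as % inhibition of control specific binding. IC50 from Hill-equation fits of competition curves; Ki via Cheng-Prusoff using radioligand concentration and Scatchard-derived KD.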

[2] = target: dopaminergic receptors D2 (Homo sapiens, UniProt P14416); test: Radioligand binding assay, dopaminergic D2 receptors; conditions: for inhibition at 1 µM / D2 [%]: binding assay, test compound 1×10^−6 M; for Ki: read-out: Inhibition constants Ki for D2 receptors, D2
dopaminergic receptors D2, sequence (P14416 whole entry): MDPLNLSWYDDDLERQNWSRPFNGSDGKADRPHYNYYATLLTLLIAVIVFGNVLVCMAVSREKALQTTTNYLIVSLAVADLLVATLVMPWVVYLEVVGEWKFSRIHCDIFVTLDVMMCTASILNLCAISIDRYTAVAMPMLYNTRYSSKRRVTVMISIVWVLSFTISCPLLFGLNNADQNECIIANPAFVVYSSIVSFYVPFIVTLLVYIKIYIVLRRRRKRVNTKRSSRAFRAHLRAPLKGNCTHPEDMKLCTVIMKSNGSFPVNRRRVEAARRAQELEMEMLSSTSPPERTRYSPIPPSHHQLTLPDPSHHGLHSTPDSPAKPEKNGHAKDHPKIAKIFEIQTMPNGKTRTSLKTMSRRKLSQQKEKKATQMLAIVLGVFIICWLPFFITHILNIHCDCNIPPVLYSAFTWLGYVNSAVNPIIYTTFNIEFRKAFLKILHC
Method in brief: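 Competition binding with scintillation counting of bound radioligand; specific binding taken as total minus non-specific binding measured with excess unlabelled ligand. IC50 obtained by Hill-equation non-linear regression of replicate-mean curves, then converted to Ki via Cheng–Prusoff using radioligand concentration and Scatchard-derived KD.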

[3] = target: T2, serotonin transporter (SERT) (Homo sapiens, UniProt P31645); test: Radioligand binding assay, serotonin transporter (SERT); conditions: for inhibition at 1 µM / SERT [%]: binding assay, test compound 1×10^−6 M; for Ki: read-out: Inhibition constants Ki for SERT, SERT
T2 construct: expressed in transfected cells; host or cells: CHO cells
T2 sequence (P31645 whole entry): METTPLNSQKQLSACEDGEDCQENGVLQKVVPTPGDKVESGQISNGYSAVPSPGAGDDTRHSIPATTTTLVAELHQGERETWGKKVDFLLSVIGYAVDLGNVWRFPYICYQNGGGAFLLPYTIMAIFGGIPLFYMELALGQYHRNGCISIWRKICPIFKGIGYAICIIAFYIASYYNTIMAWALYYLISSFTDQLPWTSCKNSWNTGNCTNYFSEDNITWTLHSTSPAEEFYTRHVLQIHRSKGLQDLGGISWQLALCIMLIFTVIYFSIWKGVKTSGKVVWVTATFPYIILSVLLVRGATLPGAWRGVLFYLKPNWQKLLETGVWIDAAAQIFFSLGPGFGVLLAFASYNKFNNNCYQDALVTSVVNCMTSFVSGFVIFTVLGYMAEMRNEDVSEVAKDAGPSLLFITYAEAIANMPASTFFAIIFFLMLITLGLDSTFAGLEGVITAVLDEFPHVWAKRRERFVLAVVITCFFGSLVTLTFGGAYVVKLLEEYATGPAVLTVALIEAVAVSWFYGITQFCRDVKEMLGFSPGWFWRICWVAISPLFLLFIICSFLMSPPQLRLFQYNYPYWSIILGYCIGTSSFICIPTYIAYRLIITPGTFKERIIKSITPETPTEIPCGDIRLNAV
Method in brief: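 Radioligand competition binding with scintillation detection; specific binding is total minus binding under excess unlabelled ligand. Reported as % of control specific binding or % inhibition; IC50 from Hill-equation non-linear regression of competition curves, and Ki via Cheng-Prusoff using radioligand concentration and Scatchard-derived KD.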

[4] = test system: σ receptors; test: Radioligand binding assay, σ receptors; conditions: rat cerebral cortex, [3H]DTG 8 nM
From the text: The specific ligand binding to the receptors is defined as the difference between the total binding and the non-specific binding determined in the presence of the excess of unlabelled ligand.
The results are expressed as a percent of control specific binding ((measured specific binding/control specific binding)×100) and as a percent inhibition of control specific binding (100−((measured specific binding/control specific binding)×100)) obtained in the presence of the test compounds. The specific ligand binding to the receptors is defined as the difference between the total binding and the nonspecific binding determined in the presence of an excess of unlabelled ligand. Scintillation counting was the method of detection of ligand binding. The IC50 values (concentration causing a half-maximal inhibition of control specific binding) were determined by non-linear regression analysis of the competition curves generated with mean replicate values using Hill equation curve fitting (Y=D+[(A−D)/(1+(C/C50)nH)], where Y=specific binding, D=minimum specific binding, A=maximum specific binding, C=compound concentration, C50=IC50, and nH=slope factor). […] The inhibition constants (Ki) were calculated using the Cheng Prusoff equation (Ki=IC50/(1+(L/KD)), where L=concentration of radioligand in the assay, and KD=affinity of the radioligand for the receptor). A scatchard plot was used to determine the Kd.

[5] = target: T3, 5-HT1A receptor (rat hippocampus) (Rattus norvegicus, UniProt P19327); test: Radioligand binding assay, serotoninergic 5-HT1A receptors; conditions: binding assay result in %, Table 5a
T3 construct: hippocampus; from tissue; host or cells: rat hippocampus
T3 sequence (P19327 1-422): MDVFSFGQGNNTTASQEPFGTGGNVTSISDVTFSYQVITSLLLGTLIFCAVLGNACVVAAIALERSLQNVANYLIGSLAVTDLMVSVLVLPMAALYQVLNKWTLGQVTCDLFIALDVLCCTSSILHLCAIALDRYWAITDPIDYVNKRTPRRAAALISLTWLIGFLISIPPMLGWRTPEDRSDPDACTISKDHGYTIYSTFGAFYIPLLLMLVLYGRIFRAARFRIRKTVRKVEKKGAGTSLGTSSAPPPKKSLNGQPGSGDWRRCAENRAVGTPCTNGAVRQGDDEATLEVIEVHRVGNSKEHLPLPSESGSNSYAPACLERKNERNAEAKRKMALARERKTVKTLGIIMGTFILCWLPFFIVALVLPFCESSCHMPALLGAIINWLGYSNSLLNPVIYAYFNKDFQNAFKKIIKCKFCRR

[6] = test system: α1 adrenergic receptors (rat cerebral cortex); test: Radioligand binding assay, adrenergic α1 receptors; conditions: test compound 1×10^−6 M
Method in brief: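 Values derive from radioligand displacement, with non-specific binding defined by excess cold ligand and detection by scintillation. Hill-fit IC50s were converted to Ki via Cheng-Prusoff using Scatchard-derived Kd; percent inhibition of control specific binding also reported.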

Row | SMILES | inhibition at 1 µM [1] [%] | inhibition at 1 µM [2] [%] | inhibition at 1 µM [3] [%] | σ [%] [4] [%] | inhibition at 1 µM [5] [%] | α1 [%] [6] [%] | α2C [%] [1] [%] | D2 [%] [2] [%] | SERT [%] [3] [%] | 5-HT1A [%] [5] [%] | Ki [3] [nM] | Ki [2] [nM]
1 | O=S(=O)(NCC1CCN(CCCc2noc3cc(F)ccc23)C1)c1ccc(-c2ccccc2)cc1 (stereo not shown) [Compound 241, N-[[1-[3-(6-Fluoro-1,2-benzoxazol-3-yl)propyl]pyrrolidin-3-yl]methyl]-4-phenyl-benzenesulphonamide] | 87 | 81 | 71 | 88 | 39 | 62 |  |  |  |  |  | 
2 | Cc1cccc(S(=O)(=O)NC2CN(CCOc3cccc4[nH]ccc34)C2)c1 [Compound 48, N-[1-[2-(1H-Indol-4-yloxy)ethyl]azetidin-3-yl]-3-methyl-benzenesulphonamide] | 105 | 84 | -3 | 18 | 100 | 87 |  |  |  |  |  | 
3 | CC1(C)Cc2cccc(OCCN3CCC(NS(=O)(=O)c4ccc5ccccc5c4)CC3)c2O1 [Compound 110, N-[1-[2-[(2,2-Dimethyl-3H-benzofuran-7-yl)oxy]ethyl]-4-piperidine]naphthalene-2-sulphonamide] |  |  |  | 56 |  | 45 | 98 | 74 | 39 | 95 |  | 
4 | O=S(=O)(NC1CCN(CCCc2c[nH]c3ccc(F)cc23)C1)c1ccc(F)cc1 (stereo not shown) [Compound 75, 4-Fluoro-N-[1-[3-(5-fluoro-1H-indol-3-yl)propyl]pyrrolidin-3-yl]benzene-sulphonamide] | 76 | 91 | 103 | 75 | 100 | 45 |  |  |  |  | 1.5 | 
5 | Cn1ccc2cc(S(=O)(=O)NCC3CCN(CCOc4cccc5c4OCCO5)C3)ccc21 (stereo not shown) [Compound 308, N-[[1-[2-(2,3-Dihydro-1,4-benzodioxin-5-yloxy)ethyl]pyrrolidin-3-yl]methyl]-1-methyl-indole-5-sulphonamide] | 96 | 57 | 95 | 91 | 98 | 69 |  |  |  |  |  | 
6 | Cc1cc(S(=O)(=O)NCC2CCN(CCOc3cccc4c3OCCO4)C2)c(C)s1 (stereo not shown) [Compound 312, N-[[1-[2-(2,3-Dihydro-1,4-benzodioxin-5-yloxy)ethyl]pyrrolidin-3-yl]methyl]-2,5-dimethylthiophene-3-sulphonamide] | 94 | 36 | 87 | 92 | 98 | 65 |  |  |  |  |  | 
7 | O=S(=O)(NC1CCN(CCCc2noc3cc(F)ccc23)C1)c1cc2ccccc2o1 (stereo not shown) [Compound 216, N-[1-[3-(6-Fluoro-1,2-benzoxazol-3-yl)propyl]pyrrolidin-3-yl]benzofuran-2-sulphonamide] | 80 | 98 | 53 | 88 | 35 | 84 |  |  |  |  |  | 
8 | O=S(=O)(NC1CCN(CCCc2c[nH]c3ccc(Cl)cc23)C1)c1cccc(Cl)c1 (stereo not shown) [Compound 84, 3-Chloro-N-[1-[3-(5-chloro-1H-indol-3-yl)propyl]pyrrolidin-3-yl]benzenesulphonamide] | 105 | 89 | 104 | 59 | 99 | 51 |  |  |  |  | 2.6 | 
9 | Cc1c(S(=O)(=O)N[C@@H]2CCN(CCCc3noc4cc(F)ccc34)C2)sc2ccc(Cl)cc12 [Compound 204, 5-Chloro-N-[(3R)-1-[3-(6-fluoro-1,2-benzoxazol-3-yl)propyl]pyrrolidin-3-yl]-3-methyl-benzothiophene-2-sulphonamide] | 89 | 98 | 70 | 90 | 71 | 76 |  |  |  |  |  | 0.4
10 | O=S(=O)(NC1CCN(CCOc2cccc3[nH]ccc23)CC1)c1ccccc1 [Compound 55, N-[1-[2-(1H-Indol-4-yloxy)ethyl]-4-piperidine]benzenesulphonamide] |  |  |  | 37 |  | 51 | 99 | 44 | 6 | 96 |  | 
11 | O=S(=O)(NC1CCN(CCCc2c[nH]c3ccc(F)cc23)C1)c1ccc2ccccc2c1 (stereo not shown) [Compound 80, N-[1-[3-(5-Fluoro-1H-indol-3-yl)propyl]pyrrolidin-3-yl]naphthalene-2-sulphonamide] | 88 | 96 | 104 | 81 | 98 | 50 |  |  |  |  | 0.5 | 
12 | Cc1c(S(=O)(=O)NCC2CCN(CCCc3noc4cc(F)ccc34)C2)sc2ccc(Cl)cc12 (stereo not shown) [Compound 238, 5-Chloro-N-[[1-[3-(6-fluoro-1,2-benzoxazol-3-yl)propyl]pyrrolidin-3-yl]methyl]-3-methyl-benzothiophene-2-sulphonamide] | 94 | 98 | 64 | 95 | 71 | 82 |  |  |  |  |  | 3.9
13 | O=S(=O)(NC1CN(CCOc2cccc3[nH]ccc23)C1)c1ccc(F)cc1 [Compound 46, 4-Fluoro-N-[1-[2-(1H-indol-4-yloxy)ethyl]azetidin-3-yl]benzene-sulphonamide] | 101 | 93 | 7 | 15 | 101 | 85 |  |  |  |  |  | 
14 | O=S(=O)(NC1CCN(CCCc2c[nH]c3ccc(Cl)cc23)C1)c1cccc(F)c1 (stereo not shown) [Compound 82, N-[1-[3-(5-Chloro-1H-indol-3-yl)propyl]pyrrolidin-3-yl]-3-fluoro-benzene-sulphonamide] | 101 | 90 | 100 | 63 | 99 | 43 |  |  |  |  | 1.3 | 
15 | Cc1c(S(=O)(=O)N[C@H]2CCN(CCCc3noc4cc(F)ccc34)C2)sc2ccc(Cl)cc12 [Compound 205, 5-Chloro-N-[(3S)-1-[3-(6-fluoro-1,2-benzoxazol-3-yl)propyl]pyrrolidin-3-yl]-3-methyl-benzothiophene-2-sulphonamide] | 86 | 99 | 45 | 92 | 63 | 71 |  |  |  |  |  | 1.6
